Several values for one entry are separate records, joined by “and”; a condition that tells them apart may be missing. Identical values can stand only once. Like-named read-outs stand apart in the source and are kept apart here.

These results are taken from PMC11855827, “High-Throughput Screening of Five Compound Libraries for Anthelmintic Activity and Toxicity Leads to the Discovery of Two Flavonoid Compounds” (International Journal of Molecular Sciences, 2025).

The subject of this test is C. elegans.
Where [1] appears, read: Table S2, C. elegans SS assay, 110 μM, 0 h, averages of 4 data points.
[2] abbreviates: Table S2, C. elegans SS assay, 110 μM, 24 h, averages of 4 data points.

Turning to `C[C@@H](CO[C@@H]1O[C@H](CO)[C@@H](O)[C@H](O)[C@H]1O)[C@@H]1CC[C@@]2(CC[C@]3(C)[C@H](CC[C@@H]4[C@@]5(C)CC[C@H](O[C@@H]6O[C@H](CO)[C@@H](O)[C@H](O)[C@H]6O[C@@H]6OC[C@@H](O)[C@H](O)[C@H]6O)[C@@](C)(CO[C@@H]6O[C@H](CO)[C@@H](O)[C@H](O)[C@H]6O)[C@@H]5CC[C@]43C)[C@H]2O)CO1` [Hosenkoside M], under setting [1], the “Percentage of motility inhibition 0 h” value amounted to 5%. Further, the “Percentage of motility inhibition 24 h” value under setting [2] was determined as 0%.
Take `O=c1c(O[C@@H]2O[C@H](CO)[C@@H](O)[C@H](O)[C@H]2O)c(-c2ccc(O)c(O)c2)oc2cc(O[C@@H]3O[C@H](CO[C@@H]4O[C@H](CO)[C@@H](O)[C@H](O)[C@H]4O)[C@@H](O)[C@H](O)[C@H]3O)cc(O)c12`: for the setting “110 µM”, the “Percentage of motility inhibition 0 h” value is given as 0% and the “Percentage of motility inhibition 24 h” value is 0%.
For the molecule `CCc1c2c(nc3ccccc13)-c1cc3c(c(=O)n1C2)COC(=O)[C@]3(O)CC` [7‐Ethylcamptothecin], under setting [1], the “Percentage of motility inhibition 0 h” value came to 11%. Moreover, under setting [2], the “Percentage of motility inhibition 24 h” value came out at 22%.
For the molecule `COc1cc(OC)c(CCC(=O)c2ccc(O)cc2)c(OC)c1` [Loureirin B], the “Percentage of motility inhibition 0 h” value under setting [1] is listed as 10%. Moreover, under setting [2], the “Percentage of motility inhibition 24 h” value is 0%.
In the same order, the values of `Cc1c(O)c(C)c2occ(Cc3ccc4c(c3)OCO4)c(=O)c2c1O` [Methylophiopogonone A] are 0% and 0%.
The like results for `CC(C)=C[C@H]1C[C@](C)(O)[C@@H]2[C@H]3CC[C@@H]4[C@@]5(C)CC[C@H](O[C@@H]6OC[C@H](O)[C@H](O[C@@H]7O[C@H](CO)[C@@H](O)[C@H](O)[C@H]7O[C@@H]7OC[C@@H](O)[C@H](O)[C@H]7O)[C@H]6O[C@@H]6O[C@@H](C)[C@H](O)[C@@H](O)[C@H]6O)C(C)(C)[C@@H]5CC[C@@]4(C)[C@@]34CO[C@@]2(C4)O1` [Jujuboside B] were, in that order, 0% and 0%.
Turning to `O=C1C=C2C=C[C@@H]3C[C@@]2(O1)[C@H]1CCCCN31` [(-)-Securinine], the “Percentage of motility inhibition 24 h” value under setting [2] came to 5%.
For the molecule `CC(C)CCC[C@@H](C)[C@H]1CC[C@@]2(C)C3=C(CC[C@]12C)[C@@]1(C)CC[C@H](O)C(C)(C)[C@@H]1CC3` [24,25-Dihydrolanosterol], the “Percentage of motility inhibition 0 h” value under setting [1] is on record as 3%. The “Percentage of motility inhibition 24 h” value under setting [2] was determined as 4%.
On to `COc1cc2c(=O)c(-c3ccc(O)cc3)coc2cc1O[C@@H]1O[C@H](CO)[C@@H](O)[C@H](O)[C@H]1O` [Glycitin], for which the “Percentage of motility inhibition 0 h” value under setting [1] turned out to be 30%. Moreover, the “Percentage of motility inhibition 24 h” value under setting [2] is listed as 4%.
In the same order, the values of `NC(=O)c1ccc[n+]([C@@H]2O[C@H](CO)[C@@H](O)[C@H]2O)c1.[Cl-]` [Nicotinamide riboside (chloride)] are 15% and 0%.
In the same order, the values of `O=c1cc(-c2ccc(O)c(O)c2)oc2cc(O[C@@H]3O[C@H](CO)[C@@H](O)[C@H](O)[C@H]3O)cc(O)c12` [Cynaroside] are 20% and 0%.
In the case of `CC(/C=C/C=C(\C)C(=O)[O-])=C\C=C\C=C(C)\C=C\C=C(/C)C(=O)[O-].[Na+].[Na+]` [Crocetin (disodium)], under setting [1], the “Percentage of motility inhibition 0 h” value turned out to be 0%. Besides, the “Percentage of motility inhibition 24 h” value under setting [2] turned out to be 5%.
The like results for `C[C@H]1O[C@@H](O[C@H]2CC[C@@]3(C)[C@@H](CC[C@]4(C)[C@@H]3C=CC3=C5CC(C)(C)CC[C@]5(CO)[C@@H](O)C[C@]34C)[C@]2(C)CO)[C@H](O[C@@H]2O[C@H](CO)[C@@H](O)[C@H](O)[C@H]2O)[C@@H](O[C@@H]2O[C@H](CO)[C@@H](O)[C@H](O)[C@H]2O)[C@H]1O` [Buddlejasaponin IVb] were, in that order, 0% and 4%.
As for Escin, the “Percentage of motility inhibition 24 h” value under setting [2] is 8% and 6%.
For `CC1(C)[C@@H](O[C@@H]2O[C@H](C(=O)O)[C@@H](O)[C@H](O)[C@H]2O[C@@H]2O[C@H](C(=O)O)[C@@H](O)[C@H](O)[C@H]2O)CC[C@]2(C)[C@H]3C(=O)C=C4[C@@H]5C[C@](C)(C(=O)O)CC[C@]5(C)CC[C@@]4(C)[C@]3(C)CC[C@@H]12` [Licorice-saponin H2], under setting [1], the “Percentage of motility inhibition 0 h” value turned out to be 0%. Further, the “Percentage of motility inhibition 24 h” value under setting [2] was 14%.
The like results for `COc1ccc(-c2cc(=O)c3c(OC)cc(OC)c(OC)c3o2)cc1` [6‐Demethoxytangeretin] were, in that order, 31% and 8%.
In the same order, the values of `CC1(C)CC[C@]2(C(=O)O)[C@H](O)C[C@]3(C)C(=CC[C@@H]4[C@@]5(C)C[C@H](O)[C@H](O)C(CO)(CO)[C@@H]5CC[C@]43C)[C@@H]2C1` [Platicodigenin] are 0% and 0%.
In the same order, the values of `COc1cc(NC(C)CCCN)c2ncccc2c1.O=P(O)(O)O.O=P(O)(O)O` (stereo not shown) [Primaquine (Diphosphate)] are 37% and 0%.
Regarding `CC(C)[C@]12O[C@H]1[C@@H]1O[C@@]13[C@@]1(C)CCC4=C(COC4=O)[C@@H]1C[C@@H]1O[C@@]13C2=O` [Triptonide], the “Percentage of motility inhibition 0 h” value under setting [1] is given as 7%. Besides, the “Percentage of motility inhibition 24 h” value under setting [2] is recorded as 13%.
The like results for `O=C(CC(O)(CC(=O)OCc1ccc(OC2OC(CO)C(O)C(O)C2O)cc1)C(=O)OCc1ccc(OC2OC(CO)C(O)C(O)C2O)cc1)OCc1ccc(OC2OC(CO)C(O)C(O)C2O)cc1` (stereo not shown) [Parishin] were, in that order, 0% and 12%.
In the same order, the values of `C[C@@H]1O[C@@H](O[C@H]2[C@H](OC(=O)[C@]34CCC(C)(C)C[C@H]3C3=CC[C@@H]5[C@@]6(C)C[C@H](O)[C@H](O[C@@H]7O[C@H](CO)[C@@H](O)[C@H](O)[C@H]7O)[C@](CO)(C(=O)O)[C@@H]6CC[C@@]5(C)[C@]3(C)C[C@H]4O)OC[C@H](O)[C@@H]2O)[C@H](O)[C@H](O)[C@H]1O[C@@H]1OC[C@@H](O)[C@H](O[C@@H]2OC[C@](O)(CO)[C@H]2O)[C@H]1O` [Platyconic acid A] are 0% and 5%.
The like results for `COc1ccc(-c2cc(=O)c3c(O)cc(O[C@@H]4O[C@H](C(=O)O)[C@@H](O)[C@H](O)[C@H]4O)cc3o2)cc1O` [DiosMetin 7‐O‐β‐D‐Glucuronide] were, in that order, 4% and 21%.
For the molecule `CC1(C)CC(NC(=O)C(=O)Nc2ccc(Br)cc2)CC(C)(C)N1` [NBD‐557], the “Percentage of motility inhibition 0 h” value under setting [1] was 22%. The “Percentage of motility inhibition 24 h” value under setting [2] came to 14%.
The like results for `COc1ccc(C[C@H]2NC[C@H](O)[C@H]2OC(C)=O)cc1` [Anisomycin] were, in that order, 10% and 44%.
The like results for Amarogentin were, in that order, 2% and 8%.
In the same order, the values of `COc1cc(-c2coc3cc4c(c(O)c3c2=O)OCO4)cc(O)c1OC` [Dichotomitin] are 34% and 22%.
`C=C(CCC=C(C)C)[C@@H]1CC=C(C)CC1` [β-Bisabolene]: the “Percentage of motility inhibition 0 h” value under setting [1] was 8%. Further, the “Percentage of motility inhibition 24 h” value under setting [2] is 57%.
